The experiment addresses T1, CDK4/cyclin D3 (Homo sapiens, UniProt P11802).
T1 construct: made in house; host or cells: insect cells (baculovirus co-infection)
In words: Inhibition of CDK4/Cyclin D retinoblastoma kinase activity. To be noted: for % Inhib CDK4/D @ 0.1 μM / inhibition at 0.1 µM: test compound at 0.1 μM; for % Inhib CDK4/D @ 1 μM / inhibition at 1 µM: test compound at 1 μM (head line shifted: 'mM' printed beside 'Structure'); for % Inhib CDK4/D @ 0.03 / inhibition at 0.03 µM: test compound at 0.03 (unit cell empty, head line shifted; μM); for inhibition at 0.1 µM: read-out: % Inhib CDK4/D @ 0.1 μM; for inhibition at 1 µM: read-out: % Inhib CDK4/D @ 1 μM; for inhibition at 0.03 µM: read-out: % Inhib CDK4/D @ 0.03. It counts as biochemical. How it is done:
Cyclin-dependent kinase activity was measured by quantifying the enzyme-catalyzed, time-dependent incorporation of radioactive phosphate from [^32P]ATP or [^33P]ATP into a protein substrate. Unless noted otherwise, assays were performed in 96-well plates in a total volume of 50 μL, in the presence of 10 mM HEPES (N-[2-hydroxyethyl]piperazine-N′-[2-ethanesulfonic acid]) (pH 7.4), 10 mM MgCl2, 25 μM adenosine triphosphate (ATP), 1 mg/mL ovalbumin, 5 μg/mL leupeptin, 1 mM dithiothreitol, 10 mM β-glycerophosphate, 0.1 mM sodium vanadate, 1 mM sodium fluoride, 2.5 mM ethylene glycol-bis(β-aminoethyl ether)-N,N,N′N′-tetraacetic acid (EGTA), 2% (v/v) dimethylsulfoxide, and 0.03-0.4 μCi [^32/33P]ATP per reaction. Reactions were initiated with enzyme, incubated at 30° C., and terminated after 20 minutes by the addition of ethylenediaminetetraacetic acid (EDTA) to 250 mM. The phosphorylated substrate was then captured on a nitrocellulose or phosphocellulose membrane using a 96-well filtration manifold, and unincorporated radioactivity was removed by repeated washing with 0.85% phosphoric acid. Radioactivity was quantified by exposing the dried membranes to a phosphorimager.
Inhibition was measured relative to control wells that contained all reaction components including 2% (v/v) DMSO but no compound, after subtraction of background radioactivity measured in the absence of enzyme. Apparent Ki values of discrete compounds were measured by assaying enzyme activity in the presence of different inhibitor compound concentrations and subtracting the background radioactivity measured in the absence of enzyme. The kinetic parameters (kcat, Km for ATP) were measured for each enzyme under the usual assay conditions by determining the dependence of initial rates on ATP concentration. Inhibition data were fit to an equation for competitive inhibition using Kaleidagraph (Synergy Software), or were fit to an equation for competitive tight-binding inhibition using the software KineTic (BioKin, Ltd.).
A complex of human CDK4 and genetically truncated (1-264) cyclin D3 was purified using traditional biochemical chromatographic techniques from insect cells that had been co-infected with the corresponding baculovirus expression vectors (see e.g., Meijer and Kim, “Chemical Inhibitors of Cyclin-Dependent Kinases,” Methods in Enzymol., 283, 113-128 (1997)). The enzyme complex (5 nM) was assayed with 0.3-0.5 μg of purified recombinant retinoblastoma protein fragment (Rb) as a substrate. The engineered Rb fragment (residues 386-928 of the native retinoblastoma protein; 62.3 kDa) contains the majority of the phosphorylation sites found in the native 106-kDa protein, as well as a tag of six histidine residues for ease of purification. Phosphorylated Rb substrate was captured by microfiltration on a nitrocellulose membrane and quantified using a phosphorimager as described above. For measurement of tight-binding inhibitors, the assay duration was extended to 60 minutes, during which the time-dependence of product formation was linear and initial rate conditions were met.

T1 sequence (P11802 whole entry): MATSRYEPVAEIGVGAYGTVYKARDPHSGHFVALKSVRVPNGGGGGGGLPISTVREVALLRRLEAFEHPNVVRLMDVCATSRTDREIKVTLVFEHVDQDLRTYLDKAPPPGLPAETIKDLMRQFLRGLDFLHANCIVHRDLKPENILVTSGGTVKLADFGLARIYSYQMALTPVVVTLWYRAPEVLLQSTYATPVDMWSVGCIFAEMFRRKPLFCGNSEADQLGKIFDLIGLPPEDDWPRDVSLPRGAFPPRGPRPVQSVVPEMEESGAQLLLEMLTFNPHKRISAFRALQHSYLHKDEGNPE
T1 sequence (P30281 1-264 partner limits assumed): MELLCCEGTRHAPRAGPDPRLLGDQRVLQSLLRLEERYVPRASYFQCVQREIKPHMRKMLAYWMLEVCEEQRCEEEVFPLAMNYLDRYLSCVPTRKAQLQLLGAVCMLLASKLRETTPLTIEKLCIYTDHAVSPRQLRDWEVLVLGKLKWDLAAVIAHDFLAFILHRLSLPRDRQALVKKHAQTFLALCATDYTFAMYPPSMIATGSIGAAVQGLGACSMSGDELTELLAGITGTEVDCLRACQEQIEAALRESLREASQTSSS

Regarding `COc1cccc(CS(=O)(=O)c2ccc(Nc3nc(N)c(C(=O)c4c(Cl)cccc4Cl)s3)cc2)c1` [DD(177)], the “% Inhib CDK4/D @ 0.1 μM” value is reported as 15%, the “% Inhib CDK4/D @ 1 μM” value was 3.2% and the “% Inhib CDK4/D @ 0.03” value is reported as −29%.
On to `CN1CCCC1CC[S+]([O-])c1cccc(Nc2nc(N)c(C(=O)c3c(Cl)cccc3Cl)s2)c1` (stereo not drawn) [DD(139)], for which the inhibition at 0.1 µM was found to be 53%, the inhibition at 1 µM is 77.6% and the inhibition at 0.03 µM is 17%.
For `CCN(CC)C(=O)CSc1ccc(Nc2nc(N)c(C(=O)c3c(Cl)cccc3Cl)s2)cc1` [DD(1)], the inhibition at 0.1 µM was -19%, the inhibition at 1 µM turned out to be 46.9% and the inhibition at 0.03 µM was -34%.
Consider `Nc1nc(Nc2ccc(S(=O)(=O)CCN3CCOCC3)cc2)sc1C(=O)c1c(Cl)cccc1Cl` [DD(199)], for which the inhibition at 0.1 µM is 31%, the “% Inhib CDK4/D @ 1 μM” value was 40.5% and the “% Inhib CDK4/D @ 0.03” value was −7.7%.
Consider `CCOCCSc1cccc(Nc2nc(N)c(C(=O)c3c(Cl)cccc3Cl)s2)c1` [DD(73)], for which the inhibition at 0.1 µM came to 31%, the inhibition at 1 µM turned out to be 73.7% and the inhibition at 0.03 µM came out at 11%.
`COC(=O)/C=C/C[S+]([O-])c1cccc(Nc2nc(N)c(C(=O)c3c(Cl)cccc3Cl)s2)c1` (stereo not drawn) [DD(124)]: the inhibition at 0.1 µM was 34%, the inhibition at 1 µM is 38.8% and the inhibition at 0.03 µM was 2.1%.
On to `Nc1nc(Nc2cccc([S+]([O-])CC(O)CO)c2)sc1C(=O)c1c(Cl)cccc1Cl` (stereo not drawn) [DD(154)], for which the inhibition at 0.1 µM worked out at 60%, the inhibition at 1 µM stood at 73.5% and the inhibition at 0.03 µM amounted to 31%.
Take `CC(C)OC(=O)C[S+]([O-])c1cccc(Nc2nc(N)c(C(=O)c3c(Cl)cccc3Cl)s2)c1` (stereo not drawn) [DD(143)]: the inhibition at 0.1 µM worked out at 24%, the inhibition at 1 µM was determined as 36.7% and the inhibition at 0.03 µM was 15%.
Turning to `Nc1nc(Nc2ccc([S+]([O-])Cc3ncon3)cc2)sc1C(=O)c1c(Cl)cccc1Cl` (stereo not drawn) [DD(88)], the inhibition at 0.1 µM was determined as 56%, the inhibition at 1 µM is 81.5% and the inhibition at 0.03 µM was 4.1%.
On to `Nc1nc(Nc2ccc([S+]([O-])CC3CCCO3)cc2)sc1C(=O)c1c(Cl)cccc1Cl` (stereo not drawn) [DD(98)], for which the inhibition at 0.1 µM worked out at 21%, the inhibition at 1 µM is 45.4% and the inhibition at 0.03 µM was -12%.
On to `Nc1nc(Nc2cccc([S+]([O-])Cc3ncon3)c2)sc1C(=O)c1c(Cl)cccc1Cl` (stereo not drawn) [DD(128)], for which the inhibition at 0.1 µM was found to be 54%, the inhibition at 1 µM turned out to be 49.9% and the inhibition at 0.03 µM was 12%.
Take `CC(C)(CO)CS(=O)(=O)c1ccc(Nc2nc(N)c(C(=O)c3c(Cl)cccc3Cl)s2)cc1` [DD(200)]: the inhibition at 0.1 µM worked out at 22%, the “% Inhib CDK4/D @ 1 μM” value came out at 22.4% and the “% Inhib CDK4/D @ 0.03” value was −13%.
Regarding `CN1CCCC(C[S+]([O-])c2cccc(Nc3nc(N)c(C(=O)c4c(Cl)cccc4Cl)s3)c2)C1` (stereo not drawn) [DD(147)], the inhibition at 0.1 µM stood at 38%, the inhibition at 1 µM is 39.6% and the inhibition at 0.03 µM was 19%.
Turning to `COC(=O)/C=C/CS(=O)(=O)c1ccc(Nc2nc(N)c(C(=O)c3c(Cl)cccc3Cl)s2)cc1` [DD(204)], the “% Inhib CDK4/D @ 0.1 μM” value was 29%, the “% Inhib CDK4/D @ 1 μM” value is 20.8% and the “% Inhib CDK4/D @ 0.03” value is listed as −3.4%.
`CN1CCCC(CSc2ccc(Nc3nc(N)c(C(=O)c4c(Cl)cccc4Cl)s3)cc2)C1` (stereo not drawn) [DD(27)]: the inhibition at 0.1 µM came to 10%, the inhibition at 1 µM turned out to be 58.7% and the inhibition at 0.03 µM is -2.6%.
Take `Nc1nc(Nc2ccc(SCCCO)cc2)sc1C(=O)c1c(Cl)cccc1Cl` [DD(5)]: the inhibition at 0.1 µM was 40%, the inhibition at 1 µM worked out at 85.2% and the inhibition at 0.03 µM was 21%.
On the same counts, the results for `CC(C)(CO)CSc1ccc(Nc2nc(N)c(C(=O)c3c(Cl)cccc3Cl)s2)cc1` [DD(40)] are 23%, 50.3% and -1.2%.
In the case of `CCC(CC)CSc1cccc(Nc2nc(N)c(C(=O)c3c(Cl)cccc3Cl)s2)c1` [DD(76)], the inhibition at 0.1 µM worked out at 9.6%, the inhibition at 1 µM came out at 29.5% and the inhibition at 0.03 µM is 19%.
The like results for `Nc1nc(Nc2cccc([S+]([O-])Cc3ccncc3)c2)sc1C(=O)c1c(Cl)cccc1Cl` (stereo not drawn) [DD(155)] were, in that order, 35%, 59.6% and 25%.
`Nc1nc(Nc2ccc(SCCN3CCOCC3)cc2)sc1C(=O)c1c(Cl)cccc1Cl` [DD(39)]: the inhibition at 0.1 µM worked out at 18%, the inhibition at 1 µM was 68.4% and the inhibition at 0.03 µM was 0.2%.
In the case of `CC(C)OC(=O)CCS(=O)(=O)c1ccc(N(C)c2nc(N)c(C(=O)c3c(Cl)cccc3Cl)s2)cc1` [DD(238)], the inhibition at 0.1 µM was 22%, the inhibition at 1 µM worked out at 21.5% and the inhibition at 0.03 µM was -19%.
`CCOCC[S+]([O-])c1ccc(Nc2nc(N)c(C(=O)c3c(Cl)cccc3Cl)s2)cc1` (stereo not drawn) [DD(113)]: the inhibition at 0.1 µM amounted to 30%, the inhibition at 1 µM stood at 59.4% and the inhibition at 0.03 µM was 1.1%.
On the same counts, the results for `Nc1nc(Nc2ccc([S+]([O-])CC(O)CO)cc2)sc1C(=O)c1c(Cl)cccc1Cl` (stereo not drawn) [DD(114)] are 46%, 77.9% and 16%.
Consider `CCC[S+]([O-])c1cccc(Nc2nc(N)c(C(=O)c3c(Cl)cccc3Cl)s2)c1` (stereo not drawn) [DD(145)], for which the inhibition at 0.1 µM was found to be 32%, the inhibition at 1 µM came out at 42.3% and the inhibition at 0.03 µM turned out to be 4.2%.
The like results for `Nc1nc(Nc2cccc([S+]([O-])CC3CC3)c2)sc1C(=O)c1c(Cl)cccc1Cl` (stereo not drawn) [DD(136)] were, in that order, 27%, 44.9% and 14%.
With `CC(C)CCOC(=O)C[S+]([O-])c1cccc(Nc2nc(N)c(C(=O)c3c(Cl)cccc3Cl)s2)c1` (stereo not drawn) [DD(151)], the inhibition at 0.1 µM came out at 9.2%, the inhibition at 1 µM came to 34.3% and the inhibition at 0.03 µM came to 16%.
Turning to `Cc1noc(C)c1C[S+]([O-])c1cccc(Nc2nc(N)c(C(=O)c3c(Cl)cccc3Cl)s2)c1` (stereo not drawn) [DD(122)], the inhibition at 0.1 µM amounted to 40%, the inhibition at 1 µM came out at 54.3% and the inhibition at 0.03 µM was found to be 16%.
Take `Nc1nc(Nc2cccc(SCC(O)CO)c2)sc1C(=O)c1c(Cl)cccc1Cl` (stereo not drawn) [DD(74)]: the inhibition at 0.1 µM is 59%, the inhibition at 1 µM was determined as 85.7% and the inhibition at 0.03 µM was 28%.
As for `CC(C)=CCS(=O)(=O)c1ccc(Nc2nc(N)c(C(=O)c3c(Cl)cccc3Cl)s2)cc1` [DD(224)], the “% Inhib CDK4/D @ 0.1 μM” value is given as 12%, the “% Inhib CDK4/D @ 1 μM” value amounted to 9.8% and the “% Inhib CDK4/D @ 0.03” value is given as −2.6%.
For `Nc1nc(Nc2cccc(SCc3ncon3)c2)sc1C(=O)c1c(Cl)cccc1Cl` [DD(48)], the inhibition at 0.1 µM worked out at 36%, the inhibition at 1 µM worked out at 52.2% and the inhibition at 0.03 µM is 26%.
In the case of `Nc1nc(Nc2ccc(S(=O)(=O)CC3CCCO3)cc2)sc1C(=O)c1c(Cl)cccc1Cl` (stereo not drawn) [DD(178)], the “% Inhib CDK4/D @ 0.1 μM” value amounted to 16%, the inhibition at 1 µM is 16.6% and the “% Inhib CDK4/D @ 0.03” value is on record as −27%.
In the case of `Nc1nc(Nc2ccc(S(=O)(=O)CCO)cc2)sc1C(=O)c1c(Cl)cccc1Cl` [DD(189)], the inhibition at 0.1 µM was 31%, the “% Inhib CDK4/D @ 1 μM” value is 32.2% and the “% Inhib CDK4/D @ 0.03” value is listed as −19%.
With `CC(=O)OCC[S+]([O-])c1cccc(Nc2nc(N)c(C(=O)c3c(Cl)cccc3Cl)s2)c1` (stereo not drawn) [DD(157)], the inhibition at 0.1 µM was found to be 42%, the inhibition at 1 µM was determined as 59.7% and the inhibition at 0.03 µM is 21%.

These data come from patent US20040176431A1, “Antiproliferative 2-(sulfo-phenyl)-aminothiazole derivatives and pharmaceutical compositions, and methods for their use” (Pfizer, Inc., priority 2003, published 2004).
